Results as given in patent US6962976B2, “Human TREK2, a stretch- and arachidonic acid-sensitive K+ channel activated by inhalational anesthetics and niluzole” (Centre National de la Recherche Scientifique-CNRS, priority 2000, dated 2005).

Assays:
TREK2 = target: T1, TREK2 (Homo sapiens, UniProt P57789); test: Whole-cell patch-clamp of TREK2 currents in transfected COS cells; format: cell-based; details: for activation of TREK2 by fatty acids and lysophospholipids (in words): whole-cell current; for effect on TREK2 current in COS cells transfected with only TREK2: no receptor co-expressed
T1 construct: expressed in transfected cells; host or cells: COS cells
T1 sequence (P57789 1-538): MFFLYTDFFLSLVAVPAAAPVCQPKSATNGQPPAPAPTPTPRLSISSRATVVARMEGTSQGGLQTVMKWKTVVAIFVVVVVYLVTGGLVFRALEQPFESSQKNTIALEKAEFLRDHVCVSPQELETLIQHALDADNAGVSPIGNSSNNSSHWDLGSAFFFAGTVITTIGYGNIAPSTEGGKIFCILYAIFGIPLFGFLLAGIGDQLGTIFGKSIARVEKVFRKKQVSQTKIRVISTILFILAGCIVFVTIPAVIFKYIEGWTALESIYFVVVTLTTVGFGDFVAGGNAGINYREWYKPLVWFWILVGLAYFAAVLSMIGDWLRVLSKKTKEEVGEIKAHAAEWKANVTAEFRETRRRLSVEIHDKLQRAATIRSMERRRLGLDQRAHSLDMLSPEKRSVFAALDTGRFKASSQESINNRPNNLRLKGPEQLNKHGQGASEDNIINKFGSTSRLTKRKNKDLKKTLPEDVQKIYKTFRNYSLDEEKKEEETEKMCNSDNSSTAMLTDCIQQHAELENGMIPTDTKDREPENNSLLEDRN
Description: For inside-out patch recordings, pipettes were filled with the EXT solution and the bathing solution was the INT solution buffered either at pH 7.3 or at pH 5.6 in the internal acidosis experiments. Cells were continuously superfused with a microperfusion system during the experiment (0.2 ml per min) done at room temperature. A RK400 patch-clamp amplifier was used for whole-cell and single-channel recordings (Bio-Logic, Claix, France). Single-channel data were low-pass filtered at 5 KHz and digitized at 50 KHz using a DAT recorder (Bio-Logic, Claix, France). pClamp software was used to analyze whole-cell data and Biopatch software (Bio-Logic) to analyze single-channel data.
Concentrations of volatile anesthetics were adjusted from saturated solutions (isoflurane, 15.3 mM; halothane, 17.5 mM and chloroform, 66.6 mM) in saline at room temperature (16). Mechanical stimulation was applied through an open loop pressure generating system and monitored at the level of the patch pipette by a calibrated pressure sensor (17).

TREK1 = target: T2, TREK1 (Homo sapiens, UniProt O95069); details: cited from earlier work
T2 sequence (O95069 1-426): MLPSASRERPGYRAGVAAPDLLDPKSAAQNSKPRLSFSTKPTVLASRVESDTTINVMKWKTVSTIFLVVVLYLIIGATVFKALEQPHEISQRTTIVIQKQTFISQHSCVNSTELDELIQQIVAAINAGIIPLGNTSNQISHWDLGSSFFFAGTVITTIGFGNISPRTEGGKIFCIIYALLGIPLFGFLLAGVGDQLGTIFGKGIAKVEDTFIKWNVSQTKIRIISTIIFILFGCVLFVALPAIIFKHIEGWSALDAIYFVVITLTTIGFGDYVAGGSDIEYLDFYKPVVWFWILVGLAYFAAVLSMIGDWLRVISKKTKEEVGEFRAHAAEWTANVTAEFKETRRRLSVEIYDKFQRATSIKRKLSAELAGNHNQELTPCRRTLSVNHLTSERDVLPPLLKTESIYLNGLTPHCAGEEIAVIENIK

TRAAK = target: T3, TRAAK (Homo sapiens, UniProt Q9NYG8); details: cited from earlier work
T3 sequence (Q9NYG8 1-393): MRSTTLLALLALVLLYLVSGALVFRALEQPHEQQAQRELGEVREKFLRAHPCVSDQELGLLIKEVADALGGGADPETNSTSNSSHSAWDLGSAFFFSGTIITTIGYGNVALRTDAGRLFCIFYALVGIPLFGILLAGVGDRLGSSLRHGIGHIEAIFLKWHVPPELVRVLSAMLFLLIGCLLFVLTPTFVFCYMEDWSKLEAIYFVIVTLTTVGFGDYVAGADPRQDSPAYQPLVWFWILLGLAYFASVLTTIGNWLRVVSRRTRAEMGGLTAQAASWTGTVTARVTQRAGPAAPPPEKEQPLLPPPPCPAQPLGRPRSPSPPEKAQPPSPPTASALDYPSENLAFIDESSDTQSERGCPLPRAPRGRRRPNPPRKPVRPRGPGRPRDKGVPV

[1] = test system: TREK2 co-expressed with mGluR2; test: Whole-cell TREK2 current, TREK2 co-expressed with Gi-coupled mGluR2 in COS cells; format: cell-based, human
Description: (§1) The voltage-clamp protocol consists of a voltage-ramp of 800 ms duration starting from a holding potential of −80 mV applied every 10 s. The current was monitored at +100 mV.
(§2) COS cells were seeded at a density of 20,000 cells per 35 mm dish, 24 h prior transfection. Cells were transiently transfected by the classical DEAE-dextran method with 0.2 μg of pIRES-CD8. TREK2 with or without mGluR1, mGluR2 or 5HT4sR expression vectors (a generous gift of Drs J P Pin and A Dumuis, Montpellier, France).
(§3) Transfected cells were visualized 48 h after transfection using the anti-CD8 antibody-coated beads method.
(§4) TREK2 was co-expressed with 5HT4sR, a Gs-coupled receptor. […] A third type of G-protein coupled receptor was co-expressed with TREK2. This receptor is the Gq-coupled mGluR1 receptor. […] The Gq-protein is commonly associated with activation of phospholipase C and the consequent production of diacylglycerol (DAG) and inositol 1,4,5-triphosphate (IP 3). Ultimately, DAG leads to activation of PKC and IP 3 to an increase of intracellular Ca^2+.

[2] = test system: TREK2 co-expressed with 5HT4sR
Description: as §1, §2, §3, §4

[3] = 1 mM, 0 mV (voltage given for halothane only)

## CCCCC/C=C\C/C=C\CCCCCCCC(=O)O [linoleic acid]
TREK2
  activation of TREK2 by fatty acids and lysophospholipids (in words): activated

## lysophosphatidylinositol
TREK2; 10 μM, at 0 mV
  fold increase of TREK2 current: 5.1±0.6 fold increase

## CCCCCCCCCCCCCCCC(=O)O [palmitic acid]
TREK2
  activation of TREK2 by fatty acids and lysophospholipids (in words): not

## lysophosphatidylcholine
TREK2
  activation of TREK2 by fatty acids and lysophospholipids (in words): activated

## CC[N+](CC)(CC)CC [tetraethylammonium]
TREK2; 10 mM
  sensitivity of TREK2 currents: insensitive

## FC(F)OC(Cl)C(F)(F)F (centres unmarked) [isoflurane]
TREK2; [3]
  fold increase of TREK2 current: 1.9±0.1 fold increase

## Nc1nc2ccc(OC(F)(F)F)cc2s1 [riluzole]
TREK1
  activation of TREK1 (in words): transiently activated
TRAAK
  activation of TRAAK (in words): permanently activated
TREK2; current monitored at +100 mV
  effect on TREK2 current (in words): activated
TREK2; followed by a decrease of the activity corresponding to an inhibition
  time course of TREK2 activation (in words): transient

## CCCCC/C=C\C/C=C\C/C=C\C/C=C\CCCC(=O)O [arachidonic acid]
TREK2; 10 μM, at 0 mV
  fold increase of TREK2 current: 8.4±1.9 fold increase

## N[C@@H](CCC(=O)O)C(=O)O [glutamate]
[1]
  effect on TREK2 activity after receptor activation: stimulation of TREK2 activity
  time to reverse the TREK2 increase after washing: more than 10 minutes
TREK2
  effect on TREK2 current in COS cells transfected with only TREK2: No effect

## Nc1ncnc2c1nc(Sc1ccc(Cl)cc1)n2[C@@H]1O[C@@H]2COP(=O)(O)O[C@H]2[C@H]1O [CPT-cAMP]
TREK2; 500 μM, at 0 mV, n=8
  inhibition of TREK2 activity: 50±5%

## CCCCCCCCCCCCCC(=O)O[C@@H]1[C@@H](C)[C@@]2(O)[C@@H](C=C(CO)C[C@]3(O)C(=O)C(C)=C[C@@H]23)[C@@H]2C(C)(C)[C@]12OC(C)=O [PMA]
TREK2; 100 nM
  inhibition of TREK2 (in words): neither the application of the PKC-activator PMA (100 nM) nor the addition of Ca^2+ in the recording pipette (1 μM) were able to induce an inhibition

## [Ca+2] [Ca^2+]
TREK2; 1 μM in the recording pipette
  inhibition of TREK2 (in words): nor the addition of Ca^2+ in the recording pipette (1 μM) were able to induce an inhibition

## [Ba+2] [Ba^2+]
TREK2; 1 mM
  sensitivity of TREK2 currents: insensitive

## FC(F)(F)C(Cl)Br (centres unmarked) [halothane]
TREK2; 0.25 mM, at +100 mV, n=10
  fold increase of TREK2 current: 1.4±0.1 fold increase
TREK2; 0.5 mM, at +100 mV, n=10
  fold increase of TREK2 current: 2.6±0.3 fold increase
TREK2; [3]
  fold increase of TREK2 current: 2.3±0.3 fold increase

## ClC(Cl)Cl [chloroform]
TREK1; 1 mM
  relative efficiency of anesthetics on TREK1: more effective than halothane and isoflurane
TREK2; [3]
  fold increase of TREK2 current: 1.8±0.1 fold increase

## NCCc1c[nH]c2ccc(O)cc12 [5-HT, 5-hydroxytryptamine]
[2]
  effect on TREK2 activity after receptor activation: decrease of TREK2 activity
TREK2
  effect on TREK2 current in COS cells transfected with only TREK2: No effect

## C=C[C@H]1C[N@@]2CC[C@H]1C[C@@H]2[C@@H](O)c1ccnc2ccc(OC)cc12 [Quinidine]
TREK2; COS, 100 μM
  inhibition at 100 µM: 50%
